According to patent US12582689B2, “Use of terpenoids in the treatment or prevention of fibrotic diseases” (ARJIL BIOTECH HOLDING COMPANY LIMITED, priority 2020, dated 2026):

How the values were obtained:
Type in all cases: in vivo
[1] = test system: TNF-α, IL-1β, IL-6 and TGF-β; test: Bleomycin-induced pulmonary fibrosis in mice: pro-inflammatory cytokines by ELISA; conditions: extract 1.0 g/kg, BH and DH (50 mg/kg), p<0.001, FIG. 35
Description: Mice were divided into fifth groups with 5 animals per group according to body weight: control group, BLM group, BLM+DEX group (7.5 mg/kg), BLM+ACH dosage group (50 mg/kg), and BLM+ACM dosage group ([…]), BLM+ACH dosage group (50 mg/kg), and BLM+ACM dosage group (25 mg/kg) BLM+AH dosage group (50 mg/kg), and BLM+AM dosage group (25 mg/kg) BLM+BH dosage group (50 mg/kg), and BLM+BM dosage group (25 mg/kg) BLM+CH dosage group (50 mg/kg), and BLM+CM dosage group (25 mg/kg) BLM+DH dosage group (50 mg/kg), and BLM+DM dosage group (25 mg/kg) BLM+EH dosage group (50 mg/kg), and BLM+EM dosage group (25 mg/kg) BLM. Pulmonary fibrosis (PF) was established in mice via a single intratracheal administration of BLM at 7.5 mg/kg mg/kg body weight. Different doses of samples were intragastrically administered daily for 21 days after BLM injury, and DEX was used as the positive control. Control and model groups received an equal volume of vehicle (0.9% NaCl) using the same schedule and route of administration. […]
The serum concentration of the pro-inflammatory cytokines (i.e. tumor necrosis factor-α (TNF-α), interleukin-6 (IL-6), and IL-1β) in serum were assessed with relevant enzyme-linked immunosorbent assay (ELISA) kits (Biosource International Inc., Sunnyvale, CA, USA), based on the manufacturer's instructions. […]

[2] = test system: bleomycin-induced pulmonary fibrosis in mice; test: Bleomycin-induced pulmonary fibrosis in mice: body and lung weight, lung index, histopathology, hydroxyproline; conditions: BLM mice; for Pulmonary index [(lung weight/body weight)×100]: BLM group 1.60 ± 0.02; for hydroxyproline (HP) content in lung tissue: extract 1.0 g/kg, compound high-dose groups (50 mg/kg), p<0.001, FIG. 34
Description: (§1) Specific pathogen-free ICR mice (males) (body weights 18-22 g) were purchased from the BioLASCO Taiwan Co., Ltd. (Taipei, Taiwan). The animals were housed in Plexiglas cages at a constant temperature of 22±1° C. and a relative humidity of 55±5% on a 12 h dark-light cycle for at least 2 weeks before the experiment. Animals were provided food and water ad libitum. All experimental procedures were performed according to the guidelines of the Institutional Animal Ethics Committee, and the protocol was approved by the Committee for the Purpose of Control and Supervision of Experiments on Animals.
Pulmonary fibrosis (PF) was established in mice via a single intratracheal administration of BLM at 7.5 mg/kg mg/kg body weight. Different doses of samples were intragastrically administered daily for 21 days after BLM injury, and DEX was used as the positive control. Control and model groups received an equal volume of vehicle (0.9% NaCl) using the same schedule and route of administration.
Mouse body weights were recorded daily. Mice were sacrificed on the 21th day using excess chloral hydrate hydrochloride anesthesia. Blood was obtained for ELISA analyses, and whole lungs were removed and weighed. […] The pulmonary coefficient was calculated using the following equation: lung weight/body weight×100%

[3] = test system: lung MPO activity; test: Bleomycin-induced pulmonary fibrosis in mice: lung myeloperoxidase (MPO) assay; conditions: BLM mice; compared with BLM group, p<0.001; FIG. 36
Description: Mice were divided into fifth groups with 5 animals per group according to body weight: control group, BLM group, BLM+DEX group (7.5 mg/kg), BLM+ACH dosage group (50 mg/kg), and BLM+ACM dosage group (2.5 mg/kg), BLM+ACH dosage group (50 mg/kg), and BLM+ACM dosage group (25 mg/kg) BLM+AH dosage group (50 mg/kg), and BLM+AM dosage group (25 mg/kg) BLM+BH dosage group (50 mg/kg), and BLM+BM dosage group (25 mg/kg) BLM+CH dosage group (50 mg/kg), and BLM+CM dosage group (25 mg/kg) BLM+DH dosage group (50 mg/kg), and BLM+DM dosage group (25 mg/kg) BLM+EH dosage group (50 mg/kg), and BLM+EM dosage group (25 mg/kg) BLM. Pulmonary fibrosis (PF) was established in mice via a single intratracheal administration of BLM at 7.5 mg/kg mg/kg body weight. Different doses of samples were intragastrically administered daily for 21 days after BLM injury, and DEX was used as the positive control. Control and model groups received an equal volume of vehicle (0.9% NaCl) using the same schedule and route of administration.
The pulmonary MPO activity was a reliable index for estimating the infiltration of inflammatory cells in lungs. The lung tissues were homogenized and the MPO levels were detected with the kits according to manufacturer's instruction.

[4] = test system: cisplatin-induced renal injury in C57BL/6 mice; test: Mice model of cisplatin-induced renal injury: serum CRE/BUN and kidney histopathology; conditions: for renal protection: normalization of serum CRE and BUN: cisplatin-treated mice, extracts at 1000 mg/kg, compound doses not given, p<0.001 vs cisplatin group
Description: Determination of biochemical parameters Serum creatinine and serum urea are assessed using colorimetric kits according to manufacturer's instructions. Kits of the former markers are purchased from (HUMAN Diagnostics Worldwide, Magdeburg, Germany) with a chemical analyzer (Roche Diagnostics, Cobas Mira Plus, Rotkreuz, Switzerland).
Kidney histopathology The anterior portion of the […] from each mouse is fixed in 10% formaldehyde phosphate butler, embedded in paraffin, cut into 5 μm sections, and then treated with an hematoxylin and eosin (H&E) stain for histological examination under the light microscopy (Nikon, ECLIPSE, TS100, Tokyo, Japan). Images are captured with a digital camera (NIS-Elements D 2.30, SP4, Build 387) at an original magnification of 400×.
as §1, with “Seven-to-eight-week-old male C57BL/6” for “Specific pathogen-free ICR”, “are obtained” for “(males) (body weights 18-22 g) were purchased”, “Ltd,” for “Ltd.”, “are” for “were”, “institutional” for “Institutional”, “is” for “was”
(§2) Renal fibrosis is induced via multiple injections of low-dose cisplatin. Intraperitoneal injections of cisplatin (5 mg/kg/injection; P4394, Sigma-Aldrich, St Louis, MO) are performed at 0, 1, and 3 weeks, for a total of 3 injections. Mice are sacrificed at 6 weeks after the first dose of cisplatin (n=6). To analyze the effects of samples, mice are given daily intraperitoneal injections for 7 days, starting from 4 weeks after first dose of cisplatin, and sacrificed at 4 weeks (n=6).

[5] = test system: CCl4-induced chronic liver fibrosis in SD rats; test: CCl4-induced chronic liver fibrosis in rat
Description: Blood samples are collected at week 0, 2, 4, 6, and 8. The animals are sacrificed at the end of the 8-week for histopathological examinations. FIGS. 7A, 7B, 7C depict delta weight, liver weight, and liver/body-weight ratio, respectively.
The level of clinical biochemistry such as aspartate aminotransferase (AST), alanine aminotransferase (ALT), is evaluated to determine the enzymatic activities of the livers of the control groups and the experimental groups (shown in FIGS. 8A-8C).

[6] = test system: TNF-α, IL-1β, IL-6 and TGF-β levels in serum; test: Cisplatin-induced renal injury mice: serum pro-inflammatory cytokines by ELISA; conditions: cisplatin-treated mice, extract at 1000 mg/kg, FIG. 4
Description: TNF-α, IL-6, and IL-1β cytokines in serum The serum concentration of the pro-inflammatory cytokines (i.e. tumor necrosis factor-α (TNF-α), interleukin-6 ([…]), and IL-1β) in serum are assessed with relevant enzyme-linked immunosorbent assay ([…]) kits (Biosource International Inc., Sunnyvale, CA, USA), based on the manufacturer's instructions.
as §1, with “Seven-to-eight-week-old male C57BL/6” for “Specific pathogen-free ICR”, “are obtained” for “(males) (body weights 18-22 g) were purchased”, “Ltd,” for “Ltd.”, “are” for “were”, “institutional” for “Institutional”, “is” for “was”
as §2, with “weeks (n=6). […]” for “weeks (n=6).”

Row | Molecule | TNF-α, IL-1β, IL-6 and TGF-β production after BLM challenge [1] | hydroxyproline (HP) content in lung tissue [2] | lung MPO activity [3] | renal protection: normalization of serum CRE and BUN [4] | other results
1 | Dehydrosulphurenic acid/Sulphurenic acid [AR101-DS2] | improved TNF-α, IL-1β, IL-6 and TGF-β production | reduced lung HP | evidently suppressed the MPO activities |  | Pulmonary index [(lung weight/body weight)×100] ([2]; 25 mg/kg daily for 21 days): 1.26 ± 0.03; Pulmonary index [(lung weight/body weight)×100] ([2]; 50 mg/kg daily for 21 days, 50 mg/kg): 1.01 ± 0.02; Pulmonary index [(lung weight/body weight)×100] ([2]; 50 mg/kg daily for 21 days, listed as BH, 50 mg/kg): significant decrease
2 | C=C(CC[C@@H](C)[C@H]1CC[C@H]2C3=C(C(=O)C[C@]12C)[C@@]1(C)CC[C@@H](O)[C@](C)(O)[C@@H]1C[C@@H]3O)[C@@H](C)C(=O)O (stereo in doubt) [AR101-DS1, RS-Antcin K] |  | reduced lung HP |  |  | 
3 | C=C(CC[C@@H](C)[C@H]1CC[C@H]2C3=C(C(=O)C[C@]12C)[C@@]1(C)CC[C@@H](O)[C@](C)(O)[C@@H]1C[C@@H]3O)[C@@H](C)C(=O)O (racemic) [AR101-DS1, RS-Antcin K] |  |  | evidently suppressed the MPO activities |  | 
4 | C=C(CC[C@@H](C(=O)O)[C@H]1CC[C@@]2(C)C3=CC[C@H]4C(C)(C)[C@@H](O)CC[C@]4(C)C3=CC[C@]12C)C(C)C [AR101-DS4, Dehydroeburicoic Acid] |  |  |  | significant renal protection effect | 
5 | C=C1C(=O)O[C@H]2/C=C(\C)CC3C=C(CC/C=C(\C)CC[C@H]12)C(=O)O3 (stereo partly shown) [AR100-DS1, Ovatodiolide] | improved TNF-α, IL-1β, IL-6 and TGF-β production | reduced lung HP | evidently suppressed the MPO activities | significant renal protection effect | liver weight ([5]; 50 mg/kg, SD rats, 8 weeks CCl4, compared to Vehicle and Naïve group): significantly larger; liver appearance ([5]; 50 mg/kg, after 8 weeks of CCl4 induction): smooth surface without atrophy and sclerosis; serum AST and ALT level ([5]; 50 mg/kg, at W6 and W8, compared with the vehicle group): less AST and ALT increases; CCl4-induced liver injury, overall ([5]; SD rats, 8 weeks CCl4): potential to partially repair CCl4-induced liver injury; kidney histopathology (H&E): necrosis and inflammatory infiltrating cells ([4]; cisplatin-stimulated mice, extract at 1000 mg/kg, FIG. 3): significantly improved necrosis and inflammatory infiltrating cells; serum NO, TNF-α, IL-1β and IL-6 production after cisplatin challenge [6]: improved NO, TNF-α, IL-1β, and IL-6 production
